From patent publication US20240165244A1 (Prelude Therapeutics Incorporated, priority 2022, published 2024)

How the values were obtained:
SMARCA4 = target: T1, SMARCA4 (Homo sapiens, UniProt P51532); assay: SMARCA4 HiBiT degradation assay in HeLa cells; format: cell-based; conditions: 18 hours, highest concentration 10 μM
T1 construct: SMARCA4-HiBiT knock-in Hela monoclonal cell (CS3023226); host or cells: HeLa monoclonal cells with heterozygous HiBiT knock-in at the endogenous SMARCA4 locus
Procedure, shortened: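 HeLa monoclonal cells with HiBiT knocked into SMARCA4 were seeded at 2500 cells/well, dosed with compound and incubated 18 hours at 37° C. HiBiT signal reported remaining SMARCA4 protein, and values came from curve fitting.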

SMARCA2 = target: T2, SMARCA2 (Homo sapiens, UniProt P51531); assay: SMARCA2 HiBiT degradation assay in HeLa cells; format: cell-based; conditions: 18 hours, highest concentration 10 μM
T2 construct: SMARCA2-HiBiT knock-in Hela monoclonal cell (CS302366); host or cells: HeLa monoclonal cells with heterozygous HiBiT knock-in at the endogenous SMARCA2 locus
Procedure, shortened: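 Degradation was read as Nano-Glo HiBiT lytic luminescence (30-60 min, RT) and fitted to curves. Compounds in 3-fold dilutions up to 10 μM were applied for 18 h at 37 °C. Cells were 2500/well monoclonal HeLa with a heterozygous C-terminal HiBiT tag on SMARCA2.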

T2 sequence (P51531 whole entry): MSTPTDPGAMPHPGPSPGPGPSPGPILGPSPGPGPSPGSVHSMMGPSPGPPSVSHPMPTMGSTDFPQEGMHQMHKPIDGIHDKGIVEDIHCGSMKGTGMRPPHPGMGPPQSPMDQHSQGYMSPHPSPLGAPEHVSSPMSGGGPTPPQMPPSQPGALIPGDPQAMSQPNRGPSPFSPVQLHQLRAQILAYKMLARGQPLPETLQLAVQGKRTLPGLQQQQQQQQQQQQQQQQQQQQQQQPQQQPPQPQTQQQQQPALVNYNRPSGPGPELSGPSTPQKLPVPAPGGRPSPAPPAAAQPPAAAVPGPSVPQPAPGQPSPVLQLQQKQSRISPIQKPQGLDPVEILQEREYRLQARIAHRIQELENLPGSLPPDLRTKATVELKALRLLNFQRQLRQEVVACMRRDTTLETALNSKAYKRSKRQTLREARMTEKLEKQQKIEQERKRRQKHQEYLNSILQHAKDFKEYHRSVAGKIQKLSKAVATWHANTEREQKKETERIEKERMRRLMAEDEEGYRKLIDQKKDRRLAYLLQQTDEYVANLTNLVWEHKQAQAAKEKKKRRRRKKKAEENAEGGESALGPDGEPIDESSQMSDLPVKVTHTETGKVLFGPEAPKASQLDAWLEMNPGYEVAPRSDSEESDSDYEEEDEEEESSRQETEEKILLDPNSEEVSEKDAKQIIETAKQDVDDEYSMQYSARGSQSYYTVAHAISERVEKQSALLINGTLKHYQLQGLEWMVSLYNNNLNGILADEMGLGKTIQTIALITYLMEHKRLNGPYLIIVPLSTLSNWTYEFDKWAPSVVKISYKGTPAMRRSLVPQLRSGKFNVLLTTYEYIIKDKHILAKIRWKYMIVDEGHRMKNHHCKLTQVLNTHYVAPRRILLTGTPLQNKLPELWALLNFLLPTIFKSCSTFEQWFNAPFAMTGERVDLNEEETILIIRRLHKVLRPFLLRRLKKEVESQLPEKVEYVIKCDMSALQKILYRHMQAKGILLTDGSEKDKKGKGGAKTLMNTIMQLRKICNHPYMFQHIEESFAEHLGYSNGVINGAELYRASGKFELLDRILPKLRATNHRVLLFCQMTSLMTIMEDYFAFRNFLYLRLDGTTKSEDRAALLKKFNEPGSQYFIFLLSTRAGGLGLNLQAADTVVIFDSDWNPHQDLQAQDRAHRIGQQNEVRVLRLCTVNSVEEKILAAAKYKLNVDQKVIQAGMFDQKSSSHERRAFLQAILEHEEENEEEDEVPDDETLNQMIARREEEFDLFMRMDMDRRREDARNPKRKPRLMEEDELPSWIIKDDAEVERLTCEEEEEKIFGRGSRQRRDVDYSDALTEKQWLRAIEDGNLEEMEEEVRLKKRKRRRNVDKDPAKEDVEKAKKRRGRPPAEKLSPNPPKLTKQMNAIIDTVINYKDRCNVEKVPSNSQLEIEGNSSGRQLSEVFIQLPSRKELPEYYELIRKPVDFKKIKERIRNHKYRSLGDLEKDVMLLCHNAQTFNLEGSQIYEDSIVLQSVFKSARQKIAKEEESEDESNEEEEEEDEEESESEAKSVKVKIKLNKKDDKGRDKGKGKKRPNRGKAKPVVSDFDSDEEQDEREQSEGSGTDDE
T1 sequence (P51532 whole entry): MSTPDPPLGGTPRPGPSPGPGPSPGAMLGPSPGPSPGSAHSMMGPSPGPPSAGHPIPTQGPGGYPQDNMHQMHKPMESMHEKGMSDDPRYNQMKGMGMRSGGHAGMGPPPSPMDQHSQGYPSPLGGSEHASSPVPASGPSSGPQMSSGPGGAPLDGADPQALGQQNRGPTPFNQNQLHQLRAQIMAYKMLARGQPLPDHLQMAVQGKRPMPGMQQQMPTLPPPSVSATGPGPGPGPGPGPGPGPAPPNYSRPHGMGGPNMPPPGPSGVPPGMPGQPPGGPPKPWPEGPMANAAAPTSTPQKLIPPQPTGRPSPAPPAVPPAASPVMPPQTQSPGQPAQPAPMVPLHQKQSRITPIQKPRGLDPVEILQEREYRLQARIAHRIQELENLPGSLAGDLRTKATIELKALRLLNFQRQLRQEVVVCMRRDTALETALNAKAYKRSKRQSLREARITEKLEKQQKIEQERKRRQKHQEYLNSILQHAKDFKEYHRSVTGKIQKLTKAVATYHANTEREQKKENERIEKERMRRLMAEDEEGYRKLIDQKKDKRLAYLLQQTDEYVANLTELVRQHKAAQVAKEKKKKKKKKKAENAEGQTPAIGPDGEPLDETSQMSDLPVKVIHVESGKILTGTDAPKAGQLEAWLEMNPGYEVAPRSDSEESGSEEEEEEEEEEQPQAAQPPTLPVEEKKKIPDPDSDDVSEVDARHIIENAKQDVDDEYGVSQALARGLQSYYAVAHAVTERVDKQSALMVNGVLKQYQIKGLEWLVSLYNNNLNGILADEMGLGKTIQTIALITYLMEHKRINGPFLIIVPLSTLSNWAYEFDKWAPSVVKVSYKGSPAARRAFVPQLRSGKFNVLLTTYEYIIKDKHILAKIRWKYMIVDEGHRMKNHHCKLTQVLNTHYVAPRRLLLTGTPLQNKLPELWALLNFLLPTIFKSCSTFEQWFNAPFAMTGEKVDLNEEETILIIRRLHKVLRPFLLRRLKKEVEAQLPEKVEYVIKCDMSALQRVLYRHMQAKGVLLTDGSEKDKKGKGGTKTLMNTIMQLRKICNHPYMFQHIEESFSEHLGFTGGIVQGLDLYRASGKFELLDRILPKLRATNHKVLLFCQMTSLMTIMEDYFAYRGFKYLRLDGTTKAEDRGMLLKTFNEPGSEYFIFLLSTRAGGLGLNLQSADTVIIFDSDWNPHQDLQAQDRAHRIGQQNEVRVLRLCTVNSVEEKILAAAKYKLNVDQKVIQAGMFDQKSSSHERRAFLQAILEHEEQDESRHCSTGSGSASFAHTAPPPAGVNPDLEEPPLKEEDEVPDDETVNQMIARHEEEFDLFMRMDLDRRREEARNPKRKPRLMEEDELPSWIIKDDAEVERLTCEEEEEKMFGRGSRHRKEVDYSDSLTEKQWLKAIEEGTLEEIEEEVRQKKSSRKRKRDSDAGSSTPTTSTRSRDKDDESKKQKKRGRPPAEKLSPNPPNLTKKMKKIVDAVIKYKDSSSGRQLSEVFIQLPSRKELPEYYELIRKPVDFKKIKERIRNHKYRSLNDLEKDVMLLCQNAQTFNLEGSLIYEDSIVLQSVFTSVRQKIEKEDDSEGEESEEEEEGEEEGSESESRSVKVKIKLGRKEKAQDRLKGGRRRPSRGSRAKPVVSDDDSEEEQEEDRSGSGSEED

Row | Compound | DC50 (SMARCA4) | Dmax (SMARCA4) | DC50 (SMARCA2) | Dmax (SMARCA2)
1 | O=C1CC[C@H](N2Cc3ccc(N4CCN(Cc5ccc(O[C@@H]6C[C@@H]7CNc8nnc(-c9cccc(Cl)c9O)cc8N7C6)cc5)CC4)cc3C2=O)C(=O)N1 [Example 25, (S)-3-(6-(4-(4-(((6aR,8R)-2-(3-chloro-2-hydroxyphenyl)-5,6,6a,7,8,9-hexahydropyrrolo[1′,2′:4,5]pyrazino[2,3-c]pyridazin-8-yl)oxy)benzyl)piperazin-1-yl)-1-oxoisoindolin-2-yl)piperidine-2,6-dione] | < 100 nM | > 75% | < 100 nM | > 75%
2 | Cc1cc(O[C@@H]2C[C@@H]3CNc4nnc(-c5cc(F)cc(F)c5O)cc4N3C2)ncc1CN1CCN(c2ccc3c(c2)C(=O)N([C@H]2CCC(=O)NC2=O)C3)CC1 [Example 28, (S)-3-(6-(4-((6-(((6aR,8R)-2-(3,5-difluoro-2-hydroxyphenyl)-5,6,6a,7,8,9-hexahydropyrrolo[1′,2′:4,5]pyrazino[2,3-c]pyridazin-8-yl)oxy)-4-methylpyridin-3-yl)methyl)piperazin-1-yl)-1-oxoisoindolin-2-yl)piperidine-2,6-dione] | < 100 nM | 50 to 75% | < 100 nM | > 75%
3 | CC(C)c1nc(O[C@H]2CN3c4cc(-c5cccc(F)c5O)nnc4NC[C@]3(C(F)F)C2)ncc1CN1CCN(c2ccc3c(c2)C(=O)N(C2CCC(=O)NC2=O)C3)CC1 (stereo partly drawn) [Example 50, 3-(6-(4-((2-(((6aS,8R)-6a-(difluoromethyl)-2-(3-fluoro-2-hydroxyphenyl)-5,6,6a,7,8,9-hexahydropyrrolo [1′,2′:4,5]pyrazino[2,3-c]pyridazin-8-yl)oxy)-4-isopropylpyrimidin-5-yl)methyl)piperazin-1-yl)-1-oxoisoindolin-2-yl)piperidine-2,6-dione] | < 100 nM | 50 to 75% | < 100 nM | > 75%
4 | O=C1CC[C@H](N2Cc3ccc(N4CCN(Cc5ccc(O[C@H]6CN7c8cc(-c9cccc(F)c9O)nnc8NC[C@]7(C(F)F)C6)cn5)CC4)cc3C2=O)C(=O)N1 [Example 49, (S)-3-(6-(4-((5-(((6aS,8R)-6a-(difluoromethyl)-2-(3-fluoro-2-hydroxyphenyl)-5,6,6a,7,8,9-hexahydropyrrolo [1′,2′:4,5]pyrazino[2,3-c]pyridazin-8-yl)oxy)pyridin-2-yl)methyl)piperazin-1-yl)-1-oxoisoindolin-2-yl)piperidine-2,6-dione] | 100 to 1000 nM | < 50% | < 100 nM | > 75%
5 | CCc1cc(CN2CCN(c3ccc4c(c3)C(=O)N([C@H]3CCC(=O)NC3=O)C4)CC2)cnc1O[C@H]1CN2c3cc(-c4cccc(F)c4O)nnc3NC[C@@]2(C(F)F)C1 [Example 44, (S)-3-(6-(4-((6-(((6aR,8R)-6a-(difluoromethyl)-2-(3-fluoro-2-hydroxyphenyl)-5,6,6a,7,8,9-hexahydropyrrolo[1′,2′:4,5]pyrazino[2,3-c]pyridazin-8-yl)oxy)-5-ethylpyridin-3-yl)methyl)piperazin-1-yl)-1-oxoisoindolin-2-yl)piperidine-2,6-dione] | 100 to 1000 nM |  | < 100 nM | > 75%
6 | Cc1cc(O[C@@H]2C[C@@H]3CNc4nnc(-c5cc(F)cc(Cl)c5O)cc4N3C2)ccc1CN1CCN(c2ccc3c(c2)C(=O)N(C2CCC(=O)NC2=O)C3)CC1 (stereo partly drawn) [Example 19, 3-(6-(4-(4-(((6aR,8R)-2-(3-chloro-5-fluoro-2-hydroxyphenyl)-5,6,6a,7,8,9-hexahydropyrrolo[1′,2′:4,5]pyrazino[2,3-c]pyridazin-8-yl)oxy)-2-methylbenzyl)piperazin-1-yl)-1-oxoisoindolin-2-yl)piperidine-2,6-dione] | < 100 nM | 50 to 75% | < 100 nM | > 75%
7 | CCc1cc(CN2CCN(c3ccc4c(c3)C(=O)N([C@H]3CCC(=O)NC3=O)C4)CC2)cnc1O[C@H]1CN2c3cc(-c4cccc(F)c4O)nnc3NC[C@]2(C(F)F)C1 [Example 47, (S)-3-(6-(4-((6-(((6aS,8R)-6a-(difluoromethyl)-2-(3-fluoro-2-hydroxyphenyl)-5,6,6a,7,8,9-hexahydropyrrolo [1′,2′:4,5]pyrazino[2,3-c]pyridazin-8-yl)oxy)-5-ethylpyridin-3-yl)methyl)piperazin-1-yl)-1-oxoisoindolin-2-yl)piperidine-2,6-dione] | < 100 nM | > 75% | < 100 nM | > 75%

More lines, now with the values ahead:

Row | DC50 (SMARCA4) | Dmax (SMARCA4) | DC50 (SMARCA2) | Dmax (SMARCA2) | Compound
8 | 100 to 1000 nM | < 50% | < 100 nM | > 75% | Cc1cc(CN2CCN(c3ccc4c(c3)C(=O)N([C@H]3CCC(=O)NC3=O)C4)CC2)c(C)nc1O[C@H]1CN2c3cc(-c4cccc(F)c4O)nnc3NC[C@@]2(C(F)F)C1 [Example 87, (S)-3-(6-(4-((6-(((6aR,8R)-6a-(difluoromethyl)-2-(3-fluoro-2-hydroxyphenyl)-5,6,6a,7,8,9-hexahydropyrrolo[1′,2′:4,5]pyrazino[2,3-c]pyridazin-8-yl)oxy)-2,5-dimethylpyridin-3-yl)methyl)piperazin-1-yl)-1-oxoisoindolin-2-yl)piperidine-2,6-dione]
9 | 100 to 1000 nM | < 50% | < 100 nM | > 75% | O=C1CCC(N2Cc3ccc(N4CCN(Cc5cnc(O[C@H]6CN7c8cc(-c9cccc(F)c9O)nnc8NC[C@@]7(C(F)F)C6)c(F)c5)CC4)cc3C2=O)C(=O)N1 (stereo partly drawn) [Example 84, 3-(6-(4-((6-(((6aR,8R)-6a-(difluoromethyl)-2-(3-fluoro-2-hydroxyphenyl)-5,6,6a,7,8,9-hexahydropyrrolo[1′,2′:4,5]pyrazino[2,3-c]pyridazin-8-yl)oxy)-5-fluoropyridin-3-yl)methyl)piperazin-1-yl)-1-oxoisoindolin-2-yl)piperidine-2,6-dione]
10 | > 1000 nM | < 50% | < 100 nM | 50 to 75% | Cc1cc(CN2CCC(c3ccc4c(c3)C(=O)N([C@H]3CCC(=O)NC3=O)C4)CC2)ncc1O[C@H]1CN2c3cc(-c4cccc(C)c4O)nnc3NC[C@]2(C(F)F)C1 [Example 94, (S)-3-(6-(1-((5-(((6aS,8R)-6a-(difluoromethyl)-2-(2-hydroxy-3-methylphenyl)-5,6,6a,7,8,9-hexahydropyrrolo [1′,2′:4,5]pyrazino[2,3-c]pyridazin-8-yl)oxy)-4-methylpyridin-2-yl)methyl)piperidin-4-yl)-1-oxoisoindolin-2-yl)piperidine-2,6-dione]
11 | > 1000 nM | < 50% | < 100 nM | > 75% | O=C1CC[C@H](N2Cc3ccc(C4CCN(Cc5ccc(O[C@H]6CN7c8cc(-c9cccc(F)c9O)nnc8NC[C@@]7(C(F)F)C6)nc5)CC4)cc3C2=O)C(=O)N1 [Example 90, (S)-3-(6-(1-((6-(((6aR,8R)-6a-(difluoromethyl)-2-(3-fluoro-2-hydroxyphenyl)-5,6,6a,7,8,9-hexahydropyrrolo[1′,2′:4,5]pyrazino[2,3-c]pyridazin-8-yl)oxy)pyridin-3-yl)methyl)piperidin-4-yl)-1-oxoisoindolin-2-yl)piperidine-2,6-dione]
12 | > 1000 nM | < 50% | < 100 nM | > 75% | CC[C@@]12CNc3nnc(-c4cccc(C)c4O)cc3N1C[C@H](Oc1cnc(CN3CCC(c4ccc5c(c4)C(=O)N([C@H]4CCC(=O)NC4=O)C5)CC3)c(C)c1C)C2 [Example 95, (S)-3-(6-(1-((5-(((6aR,8R)-6a-ethyl-2-(2-hydroxy-3-methylphenyl)-5,6,6a,7,8,9-hexahydropyrrolo[1′,2′:4,5]pyrazino[2,3-c]pyridazin-8-yl)oxy)-3,4-dimethylpyridin-2-yl)methyl)piperidin-4-yl)-1-oxoisoindolin-2-yl)piperidine-2,6-dion]
13 | 100 to 1000 nM | < 50% | < 100 nM | > 75% | Cc1nc(CN2CCN(c3ccc4c(c3)C(=O)N([C@H]3CCC(=O)NC3=O)C4)CC2)cnc1O[C@H]1CN2c3cc(-c4cccc(F)c4O)nnc3NC[C@@]2(CF)C1 [Example 64, (S)-3-(6-(4-((5-(((6aR,8R)-2-(3-fluoro-2-hydroxyphenyl)-6a-(fluoromethyl)-5,6,6a,7,8,9-hexahydropyrrolo[1′,2′:4,5]pyrazino[2,3-c]pyridazin-8-yl)oxy)-6-methylpyrazin-2-yl)methyl)piperazin-1-yl)-1-oxoisoindolin-2-yl)piperidine-2,6-dione]
14 | < 100 nM | 50 to 75% | < 100 nM | > 75% | CC[C@@]12CNc3nnc(-c4cccc(F)c4O)cc3N1C[C@H](Oc1nc(C)c(CN3CCN(c4ccc5c(c4)C(=O)N([C@H]4CCC(=O)NC4=O)C5)CC3)cc1C#N)C2 [Example 59, 5-((4-(2-((S)-2,6-dioxopiperidin-3-yl)-3-oxoisoindolin-5-yl)piperazin-1-yl)methyl)-2-(((6aR,8R)-6a-ethyl-2-(3-fluoro-2-hydroxyphenyl)-5,6,6a,7,8,9-hexahydropyrrolo[1′,2′:4,5]pyrazino[2,3-c]pyridazin-8-yl)oxy)-6-methylnicotinonitrile]
15 | < 100 nM | 50 to 75% | < 100 nM | > 75% | CC[C@@]12CNc3nnc(-c4cccc(F)c4O)cc3N1C[C@H](Oc1cc(C)c(CN3CCN(c4ccc5c(c4)C(=O)N([C@H]4CCC(=O)NC4=O)C5)CC3)cn1)C2 [Example 56, 3-(6-(4-((6-(((6aR,8R)-6a-Ethyl-2-(3-fluoro-2-hydroxyphenyl)-5,6,6a,7,8,9-hexahydropyrrolo[1′,2′:4,5]pyrazino[2,3-c]pyridazin-8-yl)oxy)-4-methylpyridin-3-yl)methyl)piperazin-1-yl)-1-oxoisoindolin-2-yl)piperidine-2,6-dione]
